Source: the kinase profiling compilation of Christmann-Franck et al. (2016)
Values joined by “and” are separate entries in the source; they are usually repeats but may differ in a detail not shown here. Identical values can stand only once.

What was measured:
Experiment in all cases: KINOMEscan competition binding
Conditions in all cases: compound 10.0 µM
[1] = molecular target: ABL1 (human) (UniProt P00519)
[2] = molecular target: RPS6KA1 KD1 (human) (UniProt Q15418)
[3] = molecular target: STK25 (human) (UniProt O00506)
Chain of STK25 (human) (O00506 whole entry, looked up): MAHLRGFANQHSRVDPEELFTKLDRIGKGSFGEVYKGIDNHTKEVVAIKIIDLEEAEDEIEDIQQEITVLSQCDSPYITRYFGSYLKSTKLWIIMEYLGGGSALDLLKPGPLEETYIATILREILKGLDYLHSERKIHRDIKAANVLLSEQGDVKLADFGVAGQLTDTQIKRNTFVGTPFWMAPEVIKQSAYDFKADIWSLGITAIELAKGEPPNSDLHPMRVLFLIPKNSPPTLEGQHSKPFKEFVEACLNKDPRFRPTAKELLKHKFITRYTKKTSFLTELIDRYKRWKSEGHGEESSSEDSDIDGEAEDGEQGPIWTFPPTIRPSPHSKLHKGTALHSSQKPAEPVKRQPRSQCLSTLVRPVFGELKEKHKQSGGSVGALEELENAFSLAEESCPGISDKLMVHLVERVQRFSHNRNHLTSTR

[4] = molecular target: DCLK1 (human) (UniProt O15075)
Chain of DCLK1 (human) (O15075 whole entry, looked up): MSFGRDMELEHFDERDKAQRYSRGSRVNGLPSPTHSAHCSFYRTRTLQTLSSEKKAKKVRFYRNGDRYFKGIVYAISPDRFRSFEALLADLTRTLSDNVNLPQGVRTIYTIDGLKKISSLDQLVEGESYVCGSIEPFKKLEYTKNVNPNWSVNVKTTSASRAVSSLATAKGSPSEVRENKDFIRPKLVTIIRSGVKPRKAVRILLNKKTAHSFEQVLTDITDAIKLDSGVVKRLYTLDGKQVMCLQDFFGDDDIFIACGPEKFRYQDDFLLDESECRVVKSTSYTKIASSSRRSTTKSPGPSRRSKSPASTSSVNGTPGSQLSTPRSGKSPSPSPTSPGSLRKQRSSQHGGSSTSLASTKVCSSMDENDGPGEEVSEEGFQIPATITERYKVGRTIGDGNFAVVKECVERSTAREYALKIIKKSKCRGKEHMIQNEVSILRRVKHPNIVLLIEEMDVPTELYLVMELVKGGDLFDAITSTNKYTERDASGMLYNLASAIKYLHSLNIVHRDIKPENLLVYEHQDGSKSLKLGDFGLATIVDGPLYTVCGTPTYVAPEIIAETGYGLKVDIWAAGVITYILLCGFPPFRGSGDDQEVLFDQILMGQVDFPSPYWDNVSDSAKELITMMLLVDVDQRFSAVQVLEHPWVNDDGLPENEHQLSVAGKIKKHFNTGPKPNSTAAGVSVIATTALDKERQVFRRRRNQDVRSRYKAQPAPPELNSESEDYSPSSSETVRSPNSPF

[5] = molecular target: CHEK2 (human) (UniProt O96017)
Chain of CHEK2 (human) (O96017 whole entry, looked up): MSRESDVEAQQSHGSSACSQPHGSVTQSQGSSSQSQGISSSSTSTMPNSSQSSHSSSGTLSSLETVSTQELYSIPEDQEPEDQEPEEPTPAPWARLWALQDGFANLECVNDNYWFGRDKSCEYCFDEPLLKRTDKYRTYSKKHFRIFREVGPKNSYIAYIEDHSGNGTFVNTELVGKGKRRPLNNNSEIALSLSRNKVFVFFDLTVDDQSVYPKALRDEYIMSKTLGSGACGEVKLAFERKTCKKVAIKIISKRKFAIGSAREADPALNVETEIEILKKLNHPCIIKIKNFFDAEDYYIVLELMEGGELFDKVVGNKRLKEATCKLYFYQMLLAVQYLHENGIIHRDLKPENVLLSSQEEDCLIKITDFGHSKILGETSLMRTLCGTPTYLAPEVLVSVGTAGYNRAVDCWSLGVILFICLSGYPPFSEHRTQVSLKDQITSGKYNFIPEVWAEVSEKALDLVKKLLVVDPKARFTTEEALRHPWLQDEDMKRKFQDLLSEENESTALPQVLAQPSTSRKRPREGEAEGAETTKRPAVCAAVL

[6] = molecular target: CAMK1 (human) (UniProt Q14012)
[7] = molecular target: ADCK4 (human) (UniProt Q96D53)
[8] = tested on: EGFR (human), P00533 [L861Q]
[9] = molecular target: MST1R (human) (UniProt Q04912)
[10] = molecular target: ERBB2 (human) (UniProt P04626)
[11] = molecular target: LTK (human) (UniProt P29376)
[12] = molecular target: AKT2 (human) (UniProt P31751)
[13] = molecular target: PLK1 (human) (UniProt P53350)
[14] = molecular target: RPS6KA4 KD1 (human) (UniProt O75676)
Chain of RPS6KA4 KD1 (human) (O75676 whole entry, looked up): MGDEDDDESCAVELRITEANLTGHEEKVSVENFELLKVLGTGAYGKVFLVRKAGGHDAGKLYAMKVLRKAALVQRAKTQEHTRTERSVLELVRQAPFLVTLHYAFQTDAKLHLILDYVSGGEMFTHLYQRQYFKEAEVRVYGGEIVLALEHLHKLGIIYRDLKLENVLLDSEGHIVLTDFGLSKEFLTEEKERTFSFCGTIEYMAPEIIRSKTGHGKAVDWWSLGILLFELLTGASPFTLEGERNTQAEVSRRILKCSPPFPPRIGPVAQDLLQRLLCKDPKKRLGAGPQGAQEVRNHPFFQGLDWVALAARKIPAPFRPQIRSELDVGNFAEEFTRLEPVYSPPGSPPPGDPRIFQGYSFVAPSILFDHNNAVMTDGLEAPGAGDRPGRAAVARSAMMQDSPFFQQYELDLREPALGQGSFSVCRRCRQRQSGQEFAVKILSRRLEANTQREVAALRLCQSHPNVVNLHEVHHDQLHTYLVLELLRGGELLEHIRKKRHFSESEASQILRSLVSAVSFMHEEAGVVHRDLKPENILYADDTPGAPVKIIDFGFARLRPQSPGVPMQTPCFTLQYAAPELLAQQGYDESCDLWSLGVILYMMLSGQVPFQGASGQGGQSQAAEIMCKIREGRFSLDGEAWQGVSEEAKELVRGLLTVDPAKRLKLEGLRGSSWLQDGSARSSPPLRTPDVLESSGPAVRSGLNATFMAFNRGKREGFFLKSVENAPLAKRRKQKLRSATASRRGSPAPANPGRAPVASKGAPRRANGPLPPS

[15] = molecular target: NEK7 (human) (UniProt Q8TDX7)
[16] = molecular target: FYN (human) (UniProt P06241)
[17] = molecular target: TNNI3K (human) (UniProt Q59H18)
[18] = molecular target: PTK2B (human) (UniProt Q14289)
Chain of PTK2B (human) (Q14289 whole entry, looked up): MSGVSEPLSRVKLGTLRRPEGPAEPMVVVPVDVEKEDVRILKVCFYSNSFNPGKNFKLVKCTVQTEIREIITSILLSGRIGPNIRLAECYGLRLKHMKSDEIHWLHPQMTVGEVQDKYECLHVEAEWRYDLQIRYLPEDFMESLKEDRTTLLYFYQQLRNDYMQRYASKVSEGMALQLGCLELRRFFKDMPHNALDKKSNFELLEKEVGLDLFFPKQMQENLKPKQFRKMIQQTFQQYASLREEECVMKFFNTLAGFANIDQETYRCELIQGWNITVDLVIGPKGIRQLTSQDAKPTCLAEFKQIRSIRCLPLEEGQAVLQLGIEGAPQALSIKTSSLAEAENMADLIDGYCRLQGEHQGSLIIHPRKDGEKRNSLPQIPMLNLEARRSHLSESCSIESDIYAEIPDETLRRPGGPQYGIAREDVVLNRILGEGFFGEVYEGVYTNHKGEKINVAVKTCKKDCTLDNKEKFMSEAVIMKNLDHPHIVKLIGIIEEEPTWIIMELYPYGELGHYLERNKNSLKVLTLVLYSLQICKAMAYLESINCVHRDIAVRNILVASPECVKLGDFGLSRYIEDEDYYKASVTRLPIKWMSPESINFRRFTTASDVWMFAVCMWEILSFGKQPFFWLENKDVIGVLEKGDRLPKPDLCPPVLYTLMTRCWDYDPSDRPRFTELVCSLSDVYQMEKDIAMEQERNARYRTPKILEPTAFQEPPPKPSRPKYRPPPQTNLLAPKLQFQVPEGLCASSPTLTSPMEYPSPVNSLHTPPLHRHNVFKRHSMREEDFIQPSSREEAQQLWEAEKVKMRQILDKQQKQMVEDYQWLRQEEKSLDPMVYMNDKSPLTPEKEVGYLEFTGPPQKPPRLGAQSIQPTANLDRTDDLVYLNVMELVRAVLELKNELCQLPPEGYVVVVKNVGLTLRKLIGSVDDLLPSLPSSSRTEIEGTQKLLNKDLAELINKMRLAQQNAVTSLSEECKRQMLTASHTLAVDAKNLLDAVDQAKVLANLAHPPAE

[19] = molecular target: CDK8 (human) (UniProt P49336)
[20] = molecular target: LATS1 (human) (UniProt O95835)
[21] = molecular target: WEE1 (human) (UniProt P30291)
[22] = molecular target: MAP4K5 (human) (UniProt Q9Y4K4)
[23] = molecular target: CSNK1A1L (human) (UniProt Q8N752)
[24] = molecular target: TGFBR1 (human) (UniProt P36897)
[25] = molecular target: JAK1 JH1 catalytic (human) (UniProt P23458)
[26] = molecular target: PAK3 (human) (UniProt O75914)
Chain of PAK3 (human) (O75914 whole entry, looked up): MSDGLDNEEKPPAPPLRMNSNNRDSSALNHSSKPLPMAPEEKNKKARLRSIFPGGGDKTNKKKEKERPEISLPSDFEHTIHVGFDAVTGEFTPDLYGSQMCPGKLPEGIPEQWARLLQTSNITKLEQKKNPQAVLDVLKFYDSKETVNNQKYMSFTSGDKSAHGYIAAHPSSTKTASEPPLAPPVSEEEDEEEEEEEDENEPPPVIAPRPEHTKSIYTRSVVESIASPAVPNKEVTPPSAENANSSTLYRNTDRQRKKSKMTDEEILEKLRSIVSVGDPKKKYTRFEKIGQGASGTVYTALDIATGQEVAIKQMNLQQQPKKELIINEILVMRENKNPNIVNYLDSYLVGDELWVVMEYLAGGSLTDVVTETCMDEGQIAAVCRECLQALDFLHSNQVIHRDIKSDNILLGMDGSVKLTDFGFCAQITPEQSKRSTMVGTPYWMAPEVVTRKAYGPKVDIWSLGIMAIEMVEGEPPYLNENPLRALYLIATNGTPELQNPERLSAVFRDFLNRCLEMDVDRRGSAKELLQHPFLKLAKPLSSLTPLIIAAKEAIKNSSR

[27] = molecular target: MARK1 (human) (UniProt Q9P0L2)
[28] = molecular target: EPHA6 (human) (UniProt Q9UF33)
[29] = molecular target: PKN1 (human) (UniProt Q16512)
[30] = molecular target: CAMK2A (human) (UniProt Q9UQM7)
[31] = molecular target: CDK11B (human) (UniProt P21127)
[32] = molecular target: EPHA5 (human) (UniProt P54756)
[33] = molecular target: SRPK1 (human) (UniProt Q96SB4)
[34] = molecular target: CSK (human) (UniProt P41240)
[35] = molecular target: MAPK6 (human) (UniProt Q16659)
[36] = molecular target: EGFR (human) (UniProt P00533)
[37] = molecular target: PAK4 (human) (UniProt O96013)
[38] = molecular target: EIF2AK2 (human) (UniProt P19525)
[39] = molecular target: CAMK1D (human) (UniProt Q8IU85)
Chain of CAMK1D (human) (Q8IU85 whole entry, looked up): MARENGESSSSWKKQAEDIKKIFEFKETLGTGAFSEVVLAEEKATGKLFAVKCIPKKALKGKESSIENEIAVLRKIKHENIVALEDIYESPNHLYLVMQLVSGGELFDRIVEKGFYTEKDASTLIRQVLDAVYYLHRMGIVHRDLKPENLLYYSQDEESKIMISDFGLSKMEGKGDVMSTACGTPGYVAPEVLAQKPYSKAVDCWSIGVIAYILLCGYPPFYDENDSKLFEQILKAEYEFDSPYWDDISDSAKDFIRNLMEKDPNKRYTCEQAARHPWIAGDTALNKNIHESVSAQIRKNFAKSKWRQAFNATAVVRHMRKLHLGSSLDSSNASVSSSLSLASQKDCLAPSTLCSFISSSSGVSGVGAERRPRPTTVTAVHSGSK

[40] = tested on: EGFR (human), P00533 [P753S; 747-752 del]
[41] = molecular target: ABL2 (human) (UniProt P42684)
[42] = molecular target: YES1 (human) (UniProt P07947)
Chain of YES1 (human) (P07947 whole entry, looked up): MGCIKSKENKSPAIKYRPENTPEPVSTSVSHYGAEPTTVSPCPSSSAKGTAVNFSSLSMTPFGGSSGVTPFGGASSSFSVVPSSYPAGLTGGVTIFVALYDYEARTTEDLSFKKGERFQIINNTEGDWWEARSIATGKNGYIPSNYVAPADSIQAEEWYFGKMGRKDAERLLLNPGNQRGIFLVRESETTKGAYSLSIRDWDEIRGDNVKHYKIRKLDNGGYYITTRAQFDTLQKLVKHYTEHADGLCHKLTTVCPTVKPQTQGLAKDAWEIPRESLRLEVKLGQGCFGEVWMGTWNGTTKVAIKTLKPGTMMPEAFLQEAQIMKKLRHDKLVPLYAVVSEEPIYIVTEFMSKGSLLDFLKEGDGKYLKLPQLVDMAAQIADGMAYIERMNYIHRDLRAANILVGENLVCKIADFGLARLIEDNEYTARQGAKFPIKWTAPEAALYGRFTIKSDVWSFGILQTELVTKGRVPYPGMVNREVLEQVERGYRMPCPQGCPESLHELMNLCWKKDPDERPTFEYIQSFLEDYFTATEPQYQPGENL

O=C1NC(=O)/C(=C/c2c[nH]c(=O)c(-c3ccc(N4CCNCC4)nc3)c2)S1
kinase still bound, per cent of control [1]: 91%
kinase still bound, per cent of control [2]: 71%
kinase still bound, per cent of control [3]: 77%
kinase still bound, per cent of control [4]: 73%
kinase still bound, per cent of control [5]: 70%
kinase still bound, per cent of control [6]: 68%
kinase still bound, per cent of control [7]: 80%
kinase still bound, per cent of control [8]: 69%
kinase still bound, per cent of control [9]: 93%
kinase still bound, per cent of control [10]: 57%
kinase still bound, per cent of control [11]: 100%
kinase still bound, per cent of control [12]: 100%
kinase still bound, per cent of control [13]: 46%
kinase still bound, per cent of control [14]: 100%
kinase still bound, per cent of control [15]: 100%
kinase still bound, per cent of control [16]: 92%
kinase still bound, per cent of control [17]: 96%
kinase still bound, per cent of control [18]: 100%
kinase still bound, per cent of control [19]: 44%
kinase still bound, per cent of control [20]: 84%
kinase still bound, per cent of control [21]: 91%
kinase still bound, per cent of control [22]: 52%
kinase still bound, per cent of control [23]: 100%
kinase still bound, per cent of control [24]: 48%
kinase still bound, per cent of control [25]: 24%
kinase still bound, per cent of control [26]: 86%
kinase still bound, per cent of control [27]: 100%
kinase still bound, per cent of control [28]: 97%
kinase still bound, per cent of control [29]: 28%
kinase still bound, per cent of control [30]: 7.8%
kinase still bound, per cent of control [31]: 100%
kinase still bound, per cent of control [32]: 100%
kinase still bound, per cent of control [33]: 25%
kinase still bound, per cent of control [34]: 80%
kinase still bound, per cent of control [35]: 93%
kinase still bound, per cent of control [36]: 73% and 89%
kinase still bound, per cent of control [37]: 98%
kinase still bound, per cent of control [38]: 38%
kinase still bound, per cent of control [39]: 48%
kinase still bound, per cent of control [40]: 76%
kinase still bound, per cent of control [41]: 78%
kinase still bound, per cent of control [42]: 97%
